Test results reported in patent publication US7074789B2, “Kinase inhibitors” (Amgen Inc., priority 1999, dated 2006).

Tests used:
Format in all cases: biochemical
EGFR = biological target: T1, EGFR (Homo sapiens, UniProt P00533); assay: Kinase inhibition assay (33P transfer), EGFR; conditions: Table 2, kinase inhibition class; read-out: EGFR-1
T1 construct: Kinases are expressed as either kinase domains or full length constructs; made in house
Outline: (§1)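 Kinase domains or full-length enzymes, GST- or polyHis-tagged, were expressed in E. coli or baculovirus High Five cells and affinity-purified. Transfer of 33PO4 from ATP onto plate-bound poly(Glu,Tyr) 4:1 or poly(Arg,Ser) 3:1 was counted by liquid scintillation after a 0.5% phosphoric acid wash. IC50 = concentration halving incorporation.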

IGFR-1 = biological target: T2, IGFR-1 (Homo sapiens, UniProt P08069); assay: Kinase inhibition assay, IGFR-1 (Table 2); conditions: Table 2, kinase inhibition class
T2 construct: Kinases are expressed as either kinase domains or full length constructs; made in house
T2 sequence (P08069 31-1367): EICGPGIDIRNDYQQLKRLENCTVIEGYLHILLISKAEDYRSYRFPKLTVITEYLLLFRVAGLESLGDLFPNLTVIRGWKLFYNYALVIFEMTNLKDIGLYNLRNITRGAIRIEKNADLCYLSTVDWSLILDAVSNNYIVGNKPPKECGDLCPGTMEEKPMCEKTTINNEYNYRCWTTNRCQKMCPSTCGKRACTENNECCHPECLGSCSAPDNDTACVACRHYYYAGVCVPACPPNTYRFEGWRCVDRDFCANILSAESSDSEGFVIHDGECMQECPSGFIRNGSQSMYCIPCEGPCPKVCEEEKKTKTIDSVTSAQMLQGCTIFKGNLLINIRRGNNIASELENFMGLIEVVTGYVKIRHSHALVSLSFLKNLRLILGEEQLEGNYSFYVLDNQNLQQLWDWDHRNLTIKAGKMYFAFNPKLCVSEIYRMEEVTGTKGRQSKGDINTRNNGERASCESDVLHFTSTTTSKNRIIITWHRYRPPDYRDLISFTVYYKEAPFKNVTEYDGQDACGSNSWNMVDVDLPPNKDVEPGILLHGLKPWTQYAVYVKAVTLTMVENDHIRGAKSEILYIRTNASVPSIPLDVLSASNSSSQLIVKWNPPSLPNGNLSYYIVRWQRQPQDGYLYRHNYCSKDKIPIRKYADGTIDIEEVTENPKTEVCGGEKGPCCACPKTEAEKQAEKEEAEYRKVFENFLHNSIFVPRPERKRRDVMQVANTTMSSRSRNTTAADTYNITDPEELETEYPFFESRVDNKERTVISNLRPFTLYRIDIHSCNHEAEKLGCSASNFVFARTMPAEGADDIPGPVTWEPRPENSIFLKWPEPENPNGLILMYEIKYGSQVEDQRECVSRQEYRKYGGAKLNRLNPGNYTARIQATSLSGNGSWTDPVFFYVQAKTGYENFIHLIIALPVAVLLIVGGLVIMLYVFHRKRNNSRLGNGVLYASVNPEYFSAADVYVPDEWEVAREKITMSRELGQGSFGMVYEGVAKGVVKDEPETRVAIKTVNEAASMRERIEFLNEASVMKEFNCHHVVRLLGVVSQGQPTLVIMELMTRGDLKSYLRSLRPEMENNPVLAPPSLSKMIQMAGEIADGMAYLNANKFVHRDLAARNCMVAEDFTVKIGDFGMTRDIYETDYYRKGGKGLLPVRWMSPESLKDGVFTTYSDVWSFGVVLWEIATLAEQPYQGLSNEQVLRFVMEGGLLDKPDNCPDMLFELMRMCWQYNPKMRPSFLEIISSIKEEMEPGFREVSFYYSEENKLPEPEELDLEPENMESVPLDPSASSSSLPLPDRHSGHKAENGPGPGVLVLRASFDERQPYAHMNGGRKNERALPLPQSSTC

PDGFRB = biological target: T3, PDGFRB (Homo sapiens, UniProt P09619); assay: Kinase inhibition assay (33P transfer), PDGFRB; conditions: read-out: PDGFRB-1
T3 construct: Kinases are expressed as either kinase domains or full length constructs; made in house

Lck = biological target: T4, Lck (Homo sapiens, UniProt P06239); assay: Kinase inhibition assay (33P transfer), Lck; conditions: read-out: Lck-1
T4 construct: Kinases are expressed as either kinase domains or full length constructs; made in house
T4 sequence (P06239 whole entry, species assumed, the tested form may be a part): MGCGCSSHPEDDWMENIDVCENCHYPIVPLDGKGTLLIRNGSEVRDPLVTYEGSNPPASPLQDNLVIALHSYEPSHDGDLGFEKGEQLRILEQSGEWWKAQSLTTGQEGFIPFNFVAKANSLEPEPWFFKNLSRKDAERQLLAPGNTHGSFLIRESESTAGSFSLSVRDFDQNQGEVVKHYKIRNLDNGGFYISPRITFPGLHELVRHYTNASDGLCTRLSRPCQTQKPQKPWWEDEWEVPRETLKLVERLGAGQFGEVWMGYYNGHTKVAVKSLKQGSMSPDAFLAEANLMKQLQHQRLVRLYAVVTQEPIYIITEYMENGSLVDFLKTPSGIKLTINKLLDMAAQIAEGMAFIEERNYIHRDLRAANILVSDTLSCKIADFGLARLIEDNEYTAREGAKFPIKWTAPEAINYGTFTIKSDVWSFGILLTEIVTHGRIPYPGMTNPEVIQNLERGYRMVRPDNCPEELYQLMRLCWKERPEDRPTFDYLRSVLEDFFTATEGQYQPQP
Outline: (§2)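 Activity was read as 33P incorporation, counted by liquid scintillation after a 0.5% phosphoric acid wash, into poly(Glu,Tyr) 4:1 or poly(Arg,Ser) 3:1 substrates coated on plates. Enzymes were tagged (GST or polyHis) kinase domains or full-length proteins from bacterial or insect-cell expression, sometimes with regulatory polypeptides.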

AKT = biological target: T5, AKT (Homo sapiens, UniProt Q9Y243); assay: Kinase inhibition assay (33P transfer), AKT; conditions: Table 2, kinase inhibition class; read-out: AKT3-1
T5 construct: Kinases are expressed as either kinase domains or full length constructs; made in house
T5 sequence (Q9Y243 whole entry, the tested form may be a part): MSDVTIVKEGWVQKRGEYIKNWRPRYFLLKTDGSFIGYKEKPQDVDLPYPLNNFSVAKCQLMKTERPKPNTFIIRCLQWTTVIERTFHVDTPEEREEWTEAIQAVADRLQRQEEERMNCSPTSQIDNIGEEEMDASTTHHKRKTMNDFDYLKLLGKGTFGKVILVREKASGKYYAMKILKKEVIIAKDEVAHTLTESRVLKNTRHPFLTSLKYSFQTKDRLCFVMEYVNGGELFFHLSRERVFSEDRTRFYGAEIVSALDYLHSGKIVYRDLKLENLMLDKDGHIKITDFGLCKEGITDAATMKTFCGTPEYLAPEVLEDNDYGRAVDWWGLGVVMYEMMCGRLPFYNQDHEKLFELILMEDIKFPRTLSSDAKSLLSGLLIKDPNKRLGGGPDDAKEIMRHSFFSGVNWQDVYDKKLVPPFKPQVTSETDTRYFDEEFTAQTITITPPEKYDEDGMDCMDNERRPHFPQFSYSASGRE
Outline: as §2

Itk = biological target: T6, Itk (Homo sapiens, UniProt Q08881); assay: Kinase inhibition assay (33P transfer), Itk; conditions: read-out: Itk-1
T6 construct: Kinases are expressed as either kinase domains or full length constructs; made in house
T6 sequence (Q08881 1-620): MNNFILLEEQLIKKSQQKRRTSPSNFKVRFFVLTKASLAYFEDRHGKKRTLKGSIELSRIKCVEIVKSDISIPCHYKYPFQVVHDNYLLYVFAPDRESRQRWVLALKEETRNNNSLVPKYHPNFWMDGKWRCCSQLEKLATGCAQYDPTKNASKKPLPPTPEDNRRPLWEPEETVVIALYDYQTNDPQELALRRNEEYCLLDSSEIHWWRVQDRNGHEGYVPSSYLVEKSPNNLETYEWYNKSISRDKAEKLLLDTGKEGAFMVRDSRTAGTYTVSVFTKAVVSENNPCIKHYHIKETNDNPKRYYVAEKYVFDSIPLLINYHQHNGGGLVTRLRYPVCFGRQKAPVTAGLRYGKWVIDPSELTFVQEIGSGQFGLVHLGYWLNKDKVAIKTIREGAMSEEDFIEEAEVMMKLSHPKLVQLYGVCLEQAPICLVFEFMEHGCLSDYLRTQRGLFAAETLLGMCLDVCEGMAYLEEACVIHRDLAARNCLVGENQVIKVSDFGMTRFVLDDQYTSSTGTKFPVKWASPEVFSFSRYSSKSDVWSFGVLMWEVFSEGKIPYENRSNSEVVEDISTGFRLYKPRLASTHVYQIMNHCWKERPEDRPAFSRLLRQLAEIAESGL
Outline: as §1

Zap-70 = biological target: T7, Zap-70 (Homo sapiens, UniProt P43403); assay: Kinase inhibition assay (33P transfer), Zap-70; conditions: read-out: Zap-1
T7 construct: Kinases are expressed as either kinase domains or full length constructs; made in house
T7 sequence (P43403 1-619): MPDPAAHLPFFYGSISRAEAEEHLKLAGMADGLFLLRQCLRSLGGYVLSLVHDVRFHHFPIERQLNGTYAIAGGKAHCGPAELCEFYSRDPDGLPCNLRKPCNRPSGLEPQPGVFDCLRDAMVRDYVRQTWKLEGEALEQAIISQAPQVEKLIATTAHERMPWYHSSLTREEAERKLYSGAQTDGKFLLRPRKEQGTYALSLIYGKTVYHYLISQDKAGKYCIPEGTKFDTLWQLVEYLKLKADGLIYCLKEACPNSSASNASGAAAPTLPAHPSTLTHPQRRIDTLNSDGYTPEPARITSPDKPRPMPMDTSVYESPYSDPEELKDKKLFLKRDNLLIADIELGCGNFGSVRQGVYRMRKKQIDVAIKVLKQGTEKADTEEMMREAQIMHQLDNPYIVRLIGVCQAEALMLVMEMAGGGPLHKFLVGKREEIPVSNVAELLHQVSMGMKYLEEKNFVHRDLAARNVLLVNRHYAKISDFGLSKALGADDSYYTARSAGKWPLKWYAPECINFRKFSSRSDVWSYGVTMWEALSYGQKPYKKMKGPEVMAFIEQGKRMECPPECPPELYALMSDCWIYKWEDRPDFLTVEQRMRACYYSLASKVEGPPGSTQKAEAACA
Outline: as §2

ErbB2 = biological target: T8, ErbB2 (Homo sapiens, UniProt P04626); assay: Kinase inhibition assay (33P transfer), ErbB2; conditions: read-out: ErbB2-2
T8 construct: Kinases are expressed as either kinase domains or full length constructs; made in house
Outline: as §1

c-Met = biological target: T9, c-Met (Homo sapiens, UniProt P08581); assay: Kinase inhibition assay (33P transfer), c-Met; conditions: Table 2, kinase inhibition class; read-out: Met-1
T9 construct: Kinases are expressed as either kinase domains or full length constructs; made in house
T9 sequence (P08581 25-1390): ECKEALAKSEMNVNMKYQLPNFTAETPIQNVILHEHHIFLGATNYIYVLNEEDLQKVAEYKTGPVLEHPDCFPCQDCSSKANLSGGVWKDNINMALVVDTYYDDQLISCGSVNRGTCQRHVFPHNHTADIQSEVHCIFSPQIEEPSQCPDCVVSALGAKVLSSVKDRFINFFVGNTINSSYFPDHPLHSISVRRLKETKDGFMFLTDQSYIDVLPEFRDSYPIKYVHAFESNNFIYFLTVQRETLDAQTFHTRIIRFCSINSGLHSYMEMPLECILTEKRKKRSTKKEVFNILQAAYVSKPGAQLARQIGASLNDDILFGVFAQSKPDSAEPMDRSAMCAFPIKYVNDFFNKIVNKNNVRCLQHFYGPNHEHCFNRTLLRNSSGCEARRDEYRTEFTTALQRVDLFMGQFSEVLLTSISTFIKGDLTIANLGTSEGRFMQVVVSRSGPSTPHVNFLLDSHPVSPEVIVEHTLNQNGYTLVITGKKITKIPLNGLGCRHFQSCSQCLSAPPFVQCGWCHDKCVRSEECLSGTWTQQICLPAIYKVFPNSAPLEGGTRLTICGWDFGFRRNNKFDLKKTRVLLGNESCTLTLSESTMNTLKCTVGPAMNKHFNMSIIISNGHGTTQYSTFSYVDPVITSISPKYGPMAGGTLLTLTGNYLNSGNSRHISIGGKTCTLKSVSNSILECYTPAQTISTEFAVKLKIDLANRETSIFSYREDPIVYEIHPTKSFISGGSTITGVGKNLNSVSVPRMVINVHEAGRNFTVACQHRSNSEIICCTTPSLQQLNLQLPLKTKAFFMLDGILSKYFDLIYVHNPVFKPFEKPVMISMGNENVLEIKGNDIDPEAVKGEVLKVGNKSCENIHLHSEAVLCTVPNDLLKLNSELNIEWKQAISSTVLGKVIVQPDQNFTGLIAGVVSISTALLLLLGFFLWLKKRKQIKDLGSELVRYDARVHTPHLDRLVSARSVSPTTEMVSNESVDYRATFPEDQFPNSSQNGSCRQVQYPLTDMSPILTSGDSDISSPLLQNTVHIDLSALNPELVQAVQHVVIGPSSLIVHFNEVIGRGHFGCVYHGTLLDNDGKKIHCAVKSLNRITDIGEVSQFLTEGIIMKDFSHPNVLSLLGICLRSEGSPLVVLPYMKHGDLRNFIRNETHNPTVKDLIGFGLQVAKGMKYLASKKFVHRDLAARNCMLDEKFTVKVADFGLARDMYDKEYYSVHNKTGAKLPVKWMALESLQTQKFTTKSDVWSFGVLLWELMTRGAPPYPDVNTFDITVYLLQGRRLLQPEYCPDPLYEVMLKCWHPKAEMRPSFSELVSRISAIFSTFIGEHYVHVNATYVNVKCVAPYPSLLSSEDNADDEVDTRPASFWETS
Outline: as §1

Kdr = biological target: T10, Kdr (Homo sapiens, UniProt P35968); assay: Kinase inhibition assay (33P transfer), Kdr; conditions: read-out: KDR-1
T10 construct: Kinases are expressed as either kinase domains or full length constructs; made in house
Outline: as §2

T1 sequence (P00533 25-1210, species assumed): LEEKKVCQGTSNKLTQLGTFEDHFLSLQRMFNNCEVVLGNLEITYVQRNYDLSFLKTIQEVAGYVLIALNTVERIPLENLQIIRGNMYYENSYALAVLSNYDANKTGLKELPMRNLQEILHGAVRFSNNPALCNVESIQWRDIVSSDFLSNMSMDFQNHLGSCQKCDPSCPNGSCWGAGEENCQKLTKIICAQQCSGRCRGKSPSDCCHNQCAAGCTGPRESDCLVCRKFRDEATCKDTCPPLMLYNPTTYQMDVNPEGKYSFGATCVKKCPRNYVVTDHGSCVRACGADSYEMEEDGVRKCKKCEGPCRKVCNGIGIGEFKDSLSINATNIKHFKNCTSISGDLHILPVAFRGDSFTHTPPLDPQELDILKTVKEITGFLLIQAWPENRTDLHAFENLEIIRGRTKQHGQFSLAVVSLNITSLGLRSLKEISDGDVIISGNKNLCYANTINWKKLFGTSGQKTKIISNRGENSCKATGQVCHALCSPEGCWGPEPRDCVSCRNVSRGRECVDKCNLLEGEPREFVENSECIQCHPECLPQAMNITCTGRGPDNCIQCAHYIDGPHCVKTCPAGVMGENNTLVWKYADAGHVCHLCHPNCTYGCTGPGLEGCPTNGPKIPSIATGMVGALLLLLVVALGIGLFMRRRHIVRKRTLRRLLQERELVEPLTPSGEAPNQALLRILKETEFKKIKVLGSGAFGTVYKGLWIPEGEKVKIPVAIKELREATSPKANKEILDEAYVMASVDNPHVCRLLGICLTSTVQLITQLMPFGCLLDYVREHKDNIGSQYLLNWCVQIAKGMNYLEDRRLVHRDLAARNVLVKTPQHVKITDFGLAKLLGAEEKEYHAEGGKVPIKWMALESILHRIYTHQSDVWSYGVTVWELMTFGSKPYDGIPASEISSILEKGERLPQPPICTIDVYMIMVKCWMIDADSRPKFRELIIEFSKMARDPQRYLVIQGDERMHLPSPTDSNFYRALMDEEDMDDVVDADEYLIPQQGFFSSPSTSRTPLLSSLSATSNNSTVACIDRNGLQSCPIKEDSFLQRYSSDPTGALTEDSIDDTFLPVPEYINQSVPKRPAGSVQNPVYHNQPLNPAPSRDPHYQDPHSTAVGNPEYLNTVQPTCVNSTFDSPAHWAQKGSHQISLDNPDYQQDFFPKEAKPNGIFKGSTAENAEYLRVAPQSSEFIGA

Row | IC50 (EGFR) | IC50 (IGFR-1) | IC50 (PDGFRB) | IC50 (Lck) | IC50 (AKT) | IC50 (Itk) | IC50 (Zap-70) | IC50 (ErbB2) | IC50 (c-Met) | IC50 (Kdr) | SMILES
1 | > 8.53 µM | > 8.53 µM | 0.758 to 4.55 µM | 0.758 to 4.55 µM | > 8.53 µM | > 8.53 µM | > 8.53 µM | > 8.53 µM | > 8.53 µM | 0.758 to 4.55 µM | COc1ccc([C@@H](C)Nc2nc3ccccc3n2-c2ncnc(Nc3cc(OC)c(OC)c(OC)c3)n2)cc1 [Compound 1045]
2 | 0.958 to 5.75 µM | 8.38 to 10.8 µM | > 10.8 µM | > 10.8 µM | > 10.8 µM | 8.38 to 10.8 µM | > 10.8 µM | > 10.8 µM | 8.38 to 10.8 µM | 8.38 to 10.8 µM | COC(=O)c1ccc(-c2cc(Nc3ncnc(Nc4ccc(CO)cc4)n3)[nH]n2)cc1 [Compound 989]
3 | > 11.3 µM | > 11.3 µM | > 11.3 µM | > 11.3 µM | > 11.3 µM | > 11.3 µM | > 11.3 µM | > 11.3 µM | > 11.3 µM | > 11.3 µM | CCOC(=O)N1CCC(Nc2ncnc(N3CCCc4cc(C)ccc43)n2)CC1 [Compound 765]
4 | 9.37 to 12 µM | > 12 µM | 1.07 to 6.43 µM | 1.07 to 6.43 µM | > 12 µM | 9.37 to 12 µM | > 12 µM | > 12 µM | 1.07 to 6.43 µM | 1.07 to 6.43 µM | CCCN(CC1CC1)c1ncnc(Nc2cc(OC)c(OC)c(OC)c2)n1 [Compound 626]
5 | > 12.5 µM | < 1.11 µM | 1.11 to 6.66 µM | 1.11 to 6.66 µM | > 12.5 µM | 1.11 to 6.66 µM | > 12.5 µM | 1.11 to 6.66 µM | 1.11 to 6.66 µM | < 1.11 µM | NC(=O)Cc1cccc(Nc2ncnc(-n3c(N)nc4ccccc43)n2)c1 [Compound 955]
6 | > 7.93 µM | > 7.93 µM | > 7.93 µM | > 7.93 µM | > 7.93 µM | > 7.93 µM | > 7.93 µM | 4.23 to 6.17 µM | 6.17 to 7.93 µM | > 7.93 µM | COc1cc(Nc2ncnc(-n3c(NCc4ccc(OC(F)(F)F)cc4)nc4ccccc43)n2)cc(OC)c1OC [Compound 571]
7 | 4.92 to 7.18 µM | > 9.23 µM | < 0.821 µM | 0.821 to 4.92 µM | > 9.23 µM | > 9.23 µM | > 9.23 µM | > 9.23 µM | > 9.23 µM | < 0.821 µM | COc1cc(Nc2ncnc(-n3c(Nc4cccc(F)c4)nc4ccccc43)n2)cc(OC)c1OC [Compound 1053]
8 | 8.59 to 11 µM | > 11 µM | > 11 µM | 5.89 to 8.59 µM | 8.59 to 11 µM | > 11 µM | > 11 µM | 8.59 to 11 µM | > 11 µM | 5.89 to 8.59 µM | COc1cc(Nc2ncnc(N[C@H]3CCCc4ccccc43)n2)cc(OC)c1OC [Compound 619]
9 | < 0.999 µM | 0.999 to 6 µM | 0.999 to 6 µM | > 11.2 µM | > 11.2 µM | 8.74 to 11.2 µM | > 11.2 µM | < 0.999 µM | 8.74 to 11.2 µM | 0.999 to 6 µM | O=C(O)Cc1cccc(Nc2ncnc(Nc3cccc(Br)c3)n2)c1 [Compound 541]
10 | < 1.03 µM | > 11.5 µM | 1.03 to 6.16 µM | 1.03 to 6.16 µM | > 11.5 µM | > 11.5 µM | > 11.5 µM | 1.03 to 6.16 µM | 1.03 to 6.16 µM | 6.16 to 8.98 µM | CN(c1cccc(Cl)c1)c1ncnc(Nc2ccc(S(C)(=O)=O)cc2)n1 [Compound 749]
11 | > 9.08 µM | > 9.08 µM | > 9.08 µM | > 9.08 µM | > 9.08 µM | > 9.08 µM | > 9.08 µM | > 9.08 µM | > 9.08 µM | < 0.807 µM | COC(=O)Cc1cccc(Nc2ncnc(-n3c(NCc4ccc(OC)cc4)nc4ccccc43)n2)c1 [Compound 548]
12 | > 13 µM | > 13 µM | > 13 µM | > 13 µM | > 13 µM | > 13 µM | > 13 µM | > 13 µM | > 13 µM | > 13 µM | Cc1ccc2c(c1)CCCN2c1ncnc(NCCc2cccnc2)n1 [Compound 775]
13 | < 0.985 µM | 5.91 to 8.61 µM | < 0.985 µM | < 0.985 µM | > 11.1 µM | > 11.1 µM | > 11.1 µM | < 0.985 µM | < 0.985 µM | 0.985 to 5.91 µM | COc1ccc(Nc2ncnc(N(C)c3ccc(Cl)c(Cl)c3)n2)cc1OC [Compound 758]
14 | > 15 µM | > 15 µM | > 15 µM | > 15 µM | > 15 µM | > 15 µM | > 15 µM | > 15 µM | > 15 µM | > 15 µM | COc1ccc(Nc2ncnc(NCCC#N)n2)cc1OC [Compound 787]
15 | > 8.53 µM | > 8.53 µM | > 8.53 µM | > 8.53 µM | > 8.53 µM | > 8.53 µM | > 8.53 µM | > 8.53 µM | > 8.53 µM | < 0.758 µM | COc1ccc([C@H](C)Nc2nc3ccccc3n2-c2ncnc(Nc3cc(OC)c(OC)c(OC)c3)n2)cc1 [Compound 1046]
16 | < 1.05 µM | 1.05 to 6.29 µM | 1.05 to 6.29 µM | 1.05 to 6.29 µM | > 11.8 µM | > 11.8 µM | > 11.8 µM | 1.05 to 6.29 µM | < 1.05 µM | < 1.05 µM | CCN(c1ccccc1)c1ncnc(Nc2cc(OC)c(OC)c(OC)c2)n1 [Compound 536]
17 | 4.91 to 7.17 µM | < 0.819 µM | > 9.21 µM | 0.819 to 4.91 µM | > 9.21 µM | 4.91 to 7.17 µM | > 9.21 µM | 4.91 to 7.17 µM | 7.17 to 9.21 µM | 0.819 to 4.91 µM | COc1cc(Nc2ncnc(Nc3cc(-c4ccc(Cl)c(Cl)c4)n[nH]3)n2)cc(OC)c1OC [Compound 589]
18 | > 8.64 µM | 6.72 to 8.64 µM | 0.768 to 4.61 µM | > 8.64 µM | > 8.64 µM | > 8.64 µM | > 8.64 µM | 0.768 to 4.61 µM | > 8.64 µM | 4.61 to 6.72 µM | COc1cc(Nc2ncnc(-n3c(Nc4cccc5cccnc45)nc4ccccc43)n2)cc(OC)c1OC [Compound 588]
19 | 7.87 to 10.1 µM | < 0.9 µM | 0.9 to 5.4 µM | 0.9 to 5.4 µM | > 10.1 µM | 0.9 to 5.4 µM | > 10.1 µM | 7.87 to 10.1 µM | < 0.9 µM | 0.9 to 5.4 µM | COC(=O)c1ccc(-c2cc(Nc3ncnc(Nc4cccc(CC(N)=O)c4)n3)[nH]n2)cc1 [Compound 577]
20 | 1.25 to 7.5 µM | > 14.1 µM | > 14.1 µM | > 14.1 µM | > 14.1 µM | > 14.1 µM | > 14.1 µM | > 14.1 µM | > 14.1 µM | > 14.1 µM | CN(c1cccc(Cl)c1)c1ncnc(NCC2CCCO2)n1 (centres unmarked) [Compound 739]
